Usually IC50 stands for the concentration that gives 50% inhibition. A lower IC50 goes with greater potency.

Experimental findings from patent US12686692B2, “KRas G12D inhibitors” (Mirati Therapeutics, Inc., priority 2020, dated 2026) are described below.

The structures appear in SMILES notation.

The subject of assay [1] is KRas G12D-mediated Phosphorylation of ERK. Kind of assay: Inhibition of KRas G12D-mediated Phosphorylation of ERK in AGS cells. It is filed as cell-based. As to conditions: Homo sapiens; AGS cells expressing G12D, 3 hours, phospho-ERK normalized to GAPDH. How it is done: AGS cells (ATCC CRL-1739) expressing G12D were grown in DMEM medium supplemented with 10% fetal bovine serum, 10 mM HEPES, and Penicillin/Streptomycin. Cells were plated in tissue culture treated 96 well plates at a density of 40,000 cells/well and allowed to attach for 12-14 hours. Diluted compounds were then added in a final concentration of 0.5% DMSO. After 3 hours, the medium was removed, 150 μl of 4.0% formaldehyde was added and the plates incubated at room temperature for 20 minutes. The plates were washed with PBS, and permeabilized with 150 μL of ice cold 100% methanol for 10 minutes. Non-specific antibody binding to the plates was blocked using 100 μL Licor blocking buffer (Li-Cor Biotechnology, Lincoln NE) for 1 hour at room temperature.
The amount of phospho-ERK was determined using an antibody specific for the phosphorylated form of ERK and compared to the amount of GAPDH. Primary antibodies used for the detection were added as follows: Phospho-ERK(Cell Signaling cs-9101) diluted 1:500 and GAPDH(Millipore MAB374) diluted 1:5000 in Licor block+0.05% Tween 20. The plates were incubated for 2 hours at room temperature. The plates were washed with PBS+0.05% Tween 20.
Secondary antibodies used to visualize primary antibodies were added as follows: Anti-rabbit-680 diluted 1:1000 and Anti-mouse-800 diluted 1:1000 both in Licor block+0.05% Tween20, and were incubated for 1 hour at room temperature. The plates were washed with PBS+0.05% Tween 20. A 100 μl aliquot of PBS was added to each well and the plates were read on a Li-Cor Odyssey CLX plate reader.
The phospho-ERK(Thr202/Tyr204 signal was normalized to the GAPDH signal for each well and percent of DMSO control values were calculated. IC50 values were generated using a 4-parameter fit of the dose response curve.

For another assay, the target named is KRas G12D (Homo sapiens, UniProt P01116, G12D). The experiment in a line: KRas G12D Binding Assay (TR-FRET displacement of labeled tracer). On the set-up: corresponding to amino acids 1:169, produced at Array BioPharma; biotin (protein is biotinylated). The conditions noted are these: TR-FRET displacement of Cy5 labelled tracer, biotinylated GDP-loaded KRAS G12D (aa 1:169), 60 minute incubation at 22° C. How it is done: This Example illustrates that exemplary compounds of the present invention bind to KRas G12D and are capable of displacing a labeled tracer ligand occupying the KRas G12D binding site.
KRas G12D, sequence (P01116 1-169 isoform P01116-2 G12D): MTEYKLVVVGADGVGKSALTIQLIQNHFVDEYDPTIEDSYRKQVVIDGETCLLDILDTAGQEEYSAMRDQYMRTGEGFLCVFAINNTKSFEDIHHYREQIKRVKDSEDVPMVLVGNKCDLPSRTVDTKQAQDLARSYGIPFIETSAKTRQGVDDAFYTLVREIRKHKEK
The ability of a compound to bind to KRAS G12D was measured using a TR-FRET displacement assay. Biotinylated GDP-loaded recombinant human KRAS G12D (corresponding to amino acids 1:169, produced at Array BioPharma) was incubated with a custom-made Cy5 labelled tracer, europium labelled streptavidin and compound (2% DMSO final) in buffer (50 mM HEPES [pH 7.5], 5 mM MgCl2, 0.005% Tween-20 & 1 mM DTT). After a 60 minute incubation at 22° C., the reaction was measured using a PerkinElmer EnVision multimode plate reader via TR-FRET dual wavelength detection, and the percent of control (POC) calculated using a ratiometric emission factor. […] The POC values were fit to a 4-parameter logistic curve and the IC50 value was determined as the concentration where the curve crosses 50 POC.

Regarding `CCc1cccc2cccc(N3CCc4c(nc(OC[C@@H]5CCCN5C)nc4N4C[C@H]5CC[C@@H](C4)N5)C3)c12` [Example 8, 4-((1R,5S)-3,8-diazabicyclo[3.2.1]octan-3-yl)-7-(8-ethylnaphthalen-1-yl)-2-(((S)-1-methylpyrrolidin-2-yl)methoxy)-5,6,7,8-tetrahydropyrido[3,4-d]pyrimidine], the IC50 was 12.6 µM in assay [1] and 0.0055 µM on KRas G12D.
The matching figures for `CCc1cccc2cccc(N3CCc4c(nc(OCC56CCCN5[C@@H](COC(=O)NC)CC6)nc4N4CC5CCC(C4)N5)C3)c12` (stereo partly drawn) [Example 5, (7a-(((4-((1R,5S)-3,8-diazabicyclo[3.2.1]octan-3-yl)-7-(8-ethylnaphthalen-1-yl)-5,6,7,8-tetrahydropyrido[3,4-d]pyrimidin-2-yl)oxy)methyl)hexahydro-1H-pyrrolizin-3-yl)methyl methylcarbamate (trans enantiomers)]: 0.142 µM and 0.0016 µM.
The matching figures for `CCc1cccc2cccc(N3CCc4c(nc(OC[C@]56CCCN5[C@@H](COC(=O)NCCOC)CC6)nc4N4C[C@H]5CC[C@@H](C4)N5)C3)c12` [Example 108, ((3R,7aR)-7a-(((4-((1R,5S)-3,8-diazabicyclo[3.2.1]octan-3-yl)-7-(8-ethylnaphthalen-1-yl)-5,6,7,8-tetrahydropyrido[3,4-d]pyrimidin-2-yl)oxy)methyl)hexahydro-1H-pyrrolizin-3-yl)methyl (2-methoxyethyl)carbamate]: 0.585 µM and 0.002 µM.
The matching figures for `CCc1cccc2cccc(N3CCc4c(nc(OCC56CCCN5C(CO)CC6)nc4N4C[C@H]5CC[C@@H](C4)N5)C3)c12` (mixture of isomers) [Example 103, (7a-(((4-((1R,5S)-3,8-diazabicyclo[3.2.1]octan-3-yl)-7-(8-ethylnaphthalen-1-yl)-5,6,7,8-tetrahydropyrido[3,4-d]pyrimidin-2-yl)oxy)methyl)hexahydro-1H-pyrrolizin-3-yl)methanol]: 6.22 µM and 0.0039 µM.
In the case of `CCc1c(F)ccc2cccc(N3CCc4c(nc(OC[C@]56CCCN5[C@@H](COC(=O)N5CCOCC5)CC6)nc4N4C[C@H]5CC[C@@H](C4)N5)C3)c12` [Example 98, ((3R,7aR)-7a-(((4-((1R,5S)-3,8-diazabicyclo[3.2.1]octan-3-yl)-7-(8-ethyl-7-fluoronaphthalen-1-yl)-5,6,7,8-tetrahydropyrido[3,4-d]pyrimidin-2-yl)oxy)methyl)hexahydro-1H-pyrrolizin-3-yl)methyl morpholine-4-carboxylate], the IC50 in assay [1] worked out at 0.05 µM; on KRas G12D, 0.0007 µM.
The matching figures for `CCc1cccc2cccc(N3CCc4c(nc(OC[C@]56CCCN5[C@@H](COC(=O)N(C)CCO)CC6)nc4N4C[C@H]5CC[C@@H](C4)N5)C3)c12` [Example 107, ((3R,7aR)-7a-(((4-((1R,5S)-3,8-diazabicyclo[3.2.1]octan-3-yl)-7-(8-ethylnaphthalen-1-yl)-5,6,7,8-tetrahydropyrido[3,4-d]pyrimidin-2-yl)oxy)methyl)hexahydro-1H-pyrrolizin-3-yl)methyl (2-hydroxyethyl)(methyl)carbamate]: 0.408 µM and 0.002 µM.
The matching figures for `COC[C@@H]1C[C@@H]2CN(c3nc(OC[C@@H]4CCCN4C)nc4c3CCN(c3cccc5cccc(Cl)c35)C4)C[C@H]1N2` (single isomer, unassigned) [Example 93]: > 16.7 µM and 0.36 µM.
`CCc1cccc2cccc(N3CCc4c(nc(OCC56CCCN5[C@@H](COC(=O)N(C)C)CC6)nc4N4CC5CCC(C4)N5)C3)c12` (stereo partly drawn) [Example 13, (7a-(((4-((1R,5S)-3,8-diazabicyclo[3.2.1]octan-3-yl)-7-(8-ethylnaphthalen-1-yl)-5,6,7,8-tetrahydropyrido[3,4-d]pyrimidin-2-yl)oxy)methyl)hexahydro-1H-pyrrolizin-3-yl)methyl dimethylcarbamate (trans enantiomers)]: the IC50 in assay [1] turned out to be 0.261 µM; at KRas G12D, 0.0013 µM.
On to `F[C@H]1CN2CCCC2(COc2nc3c(c(N4CC5CCC(C4)N5)n2)CCN(c2cccc(Cl)c2C2CC2)C3)C1` (mixture of isomers) [Example 17, 4-((1R,5S)-3,8-diazabicyclo[3.2.1]octan-3-yl)-7-(3-chloro-2-cyclopropylphenyl)-2-((2-fluorotetrahydro-1H-pyrrolizin-7a(5H)-yl)methoxy)-5,6,7,8-tetrahydropyrido[3,4-d]pyrimidine (racemic, trans)], for which the IC50 in assay [1] was > 16.7 µM; on KRas G12D, 0.0295 µM.
As to `Oc1cc(N2CCc3c(nc(OC[C@@]45CCCN4C[C@H](F)C5)nc3N3C[C@H]4CC[C@@H](C3)N4)C2)c2c(Cl)cccc2c1` [Example 117, 4-(4-((1R,5S)-3,8-diazabicyclo[3.2.1]octan-3-yl)-2-(((2R,7aS)-2-fluorohexahydro-1H-pyrrolizin-7a-yl)methoxy)-5,6-dihydropyrido[3,4-d]pyrimidin-7(8H)-yl)-5-chloronaphthalen-2-ol], the IC50 stood at 0.076 µM in assay [1] and 0.0007 µM at KRas G12D.
For `CCc1cccc2cccc(N3CCc4c(nc(OC[C@]56CCCN5[C@@H](COC(=O)NC)CC6)nc4N4C[C@H]5CC[C@@H](C4)N5)C3)c12` [Example 18, ((3R,7aR)-7a-(((4-((1R,5S)-3,8-diazabicyclo[3.2.1]octan-3-yl)-7-(8-ethylnaphthalen-1-yl)-5,6,7,8-tetrahydropyrido[3,4-d]pyrimidin-2-yl)oxy)methyl)hexahydro-1H-pyrrolizin-3-yl)methyl methylcarbamate], the IC50 worked out at 0.07 µM in assay [1] and 0.002 µM on KRas G12D.
On to `CCc1c(F)ccc2cc(O)cc(N3CCc4c(nc(OCC56CCCN5CCC6)nc4N4C[C@H]5CC[C@@H](C4)N5)C3)c12` [Example 119, 4-(4-((1R,5S)-3,8-diazabicyclo[3.2.1]octan-3-yl)-2-((hexahydro-1H-pyrrolizin-7a-yl)methoxy)-5,6-dihydropyrido[3,4-d]pyrimidin-7(8H)-yl)-5-ethyl-6-fluoronaphthalen-2-ol], for which the values for the IC50 (in assay [1]; on KRas G12D) were 0.007 µM and 0.0016 µM, respectively.
On the same counts, the results for `Oc1cc(N2CCc3c(nc(OCC45CCCN4C[C@H](F)C5)nc3N3CC4CCC(C3)N4)C2)c2c(Cl)cccc2c1` (mixture of isomers) [Example 49, 4-(4-((1R,5S)-3,8-diazabicyclo[3.2.1]octan-3-yl)-2-((2-fluorotetrahydro-1H-pyrrolizin-7a(5H)-yl)methoxy)-5,8-dihydropyrido[3,4-d]pyrimidin-7(6H)-yl)-5-chloronaphthalen-2-ol] are 0.077 µM and 0.0005 µM.
On to `CCc1cccc2cccc(N3CCc4c(nc(OC[C@@]56CCCN5C[C@H](F)C6)nc4[C@@H]4C[C@H]5CC[C@@H](C4)N5)C3)c12` [Example 122, 4-((1R,3s,5S)-8-azabicyclo[3.2.1]octan-3-yl)-7-(8-ethylnaphthalen-1-yl)-2-(((2R,7aS)-2-fluorotetrahydro-1H-pyrrolizin-7a(5H)-yl)methoxy)-5,6,7,8-tetrahydropyrido[3,4-d]pyrimidine], for which, on KRas G12D, the IC50 stood at 0.234 µM.
On the same count and under the same terms, under `FC1(F)CCc2c(N3CCc4c(nc(OCC56CCCN5CCC6)nc4N4C[C@H]5CC[C@@H](C4)N5)C3)cccc21` [Example 101, 4-((1R,5S)-3,8-diazabicyclo[3.2.1]octan-3-yl)-7-(1,1-difluoro-2,3-dihydro-1H-inden-4-yl)-2-((tetrahydro-1H-pyrrolizin-7a(5H)-yl)methoxy)-5,6,7,8-tetrahydropyrido[3,4-d]pyrimidine] stands 2.49 µM.
